Results reported in US12660819B2, “Herbicidal derivatives” (SYNGENTA CROP PROTECTION AG, priority 2020, dated 2026).

What was measured:
Type in all cases: in vivo
[1] = system: Ipomoea hederacea (IPOHE); experiment: Pre-emergence Test (glasshouse, percentage damage to the plant); conditions: 1000 g/ha unless otherwise stated; for percentage damage to the plant, IPOHE: five-point scale; for percentage damage to the plant, IPOHE (five-point scale): Ipomoea hederacea
[2] = system: Abutilon theophrasti (ABUTH); experiment: as above; conditions: 1000 g/ha unless otherwise stated; for percentage damage to the plant, ABUTH: five-point scale; for percentage damage to the plant, ABUTH (five-point scale): Abutilon theophrasti
[3] = system: Echinochloa crus-galli (ECHCG); experiment: Post-emergence Test (glasshouse, percentage damage to the plant); conditions: 1000 g/ha unless otherwise stated, evaluated after 13 days; for Post-emergence Test ECHCG, percentage damage to the plant (five-point scale): post-emergence spray; for ECHCG, percentage damage caused to the plant (five-point scale): post-emergence
Description: (§1) Seeds of a variety of test species are sown in standard soil in pots (Amaranthus retoflexus (AMARE), Solanum nigrum (SOLNI), Setaria faberi (SETFA), Lolium perenne (LOLPE), Echinochloa crus-galli (ECHCG), Ipomoea hederacea (IPOHE), Abutilon theophrasti (ABUTH), Zea mays (ZEAMX), Amaranthus palmeri (AMAPA). After 8 days cultivation under controlled conditions in a glasshouse (at 24° C./16° C., day/night; 14 hours light; 65% humidity), the plants are sprayed with an aqueous spray solution derived from the formulation of the technical active ingredient in acetone/water (50:50) solution containing 0.5% Tween 20 (polyoxyethelyene sorbitan monolaurate, CAS RN 9005-64-5). Compounds are applied at 1000 g/ha unless otherwise stated. The test plants are then grown in a glasshouse under controlled conditions in a glasshouse (at 24° C./16° C., day/night; 14 hours light; 65% humidity) and watered twice daily. After 13 days the test is evaluated for the percentage damage caused to the plant. The biological activities are shown in the following table on a five-point scale (5=81-100%; 4=61-80%; 3=41-60%; 2=21-40%; 1=0-20%).

[4] = system: Amaranthus retoflexus (AMARE); experiment: as above; conditions: 1000 g/ha unless otherwise stated, evaluated after 13 days; for Post-emergence Test AMARE, percentage damage to the plant (five-point scale): post-emergence spray; for AMARE, percentage damage caused to the plant (five-point scale): post-emergence
Description: as §1

[5] = system: Setaria faberi (SETFA); experiment: as above; conditions: 1000 g/ha unless otherwise stated, evaluated after 13 days; for Post-emergence Test SETFA, percentage damage to the plant (five-point scale): post-emergence spray; for SETFA, percentage damage caused to the plant (five-point scale): post-emergence
Description: as §1

[6] = system: Ipomoea hederacea (IPOHE); experiment: as above; conditions: 1000 g/ha unless otherwise stated, evaluated after 13 days; for Post-emergence Test IPOHE, percentage damage to the plant (five-point scale): post-emergence spray; for IPOHE, percentage damage caused to the plant (five-point scale): post-emergence
Description: as §1

[7] = system: Zea mays (ZEAMX); experiment: as above; conditions: 1000 g/ha unless otherwise stated, evaluated after 13 days; for Post-emergence Test ZEAMX, percentage damage to the plant (five-point scale): post-emergence spray; for ZEAMX, percentage damage caused to the plant (five-point scale): post-emergence
Description: as §1

[8] = system: Zea mays (ZEAMX); experiment: Pre-emergence Test (glasshouse, percentage damage to the plant); conditions: 1000 g/ha unless otherwise stated; for percentage damage to the plant, ZEAMX: five-point scale; for percentage damage to the plant, ZEAMX (five-point scale): Zea mays
[9] = system: Amaranthus retoflexus (AMARE); experiment: as above; conditions: 1000 g/ha unless otherwise stated; for percentage damage to the plant, AMARE: five-point scale; for percentage damage to the plant, AMARE (five-point scale): Amaranthus retoflexus
[10] = system: Setaria faberi (SETFA); experiment: as above; conditions: 1000 g/ha unless otherwise stated; for percentage damage to the plant, SETFA: five-point scale; for percentage damage to the plant, SETFA (five-point scale): Setaria faberi
[11] = system: Echinochloa crus-galli (ECHCG); experiment: as above; conditions: 1000 g/ha unless otherwise stated; for percentage damage to the plant, ECHCG: five-point scale; for percentage damage to the plant, ECHCG (five-point scale): Echinochloa crus-galli

| Structure (SMILES) | percentage damage to the plant, IPOHE [1] | percentage damage to the plant, ABUTH [2] | Post-emergence Test ECHCG, percentage damage to the plant (five-point scale) [3] | Post-emergence Test AMARE, percentage damage to the plant (five-point scale) [4] | Post-emergence Test SETFA, percentage damage to the plant (five-point scale) [5] | Post-emergence Test IPOHE, percentage damage to the plant (five-point scale) [6] | Post-emergence Test ZEAMX, percentage damage to the plant (five-point scale) [7] | percentage damage to the plant, ZEAMX [8] | percentage damage to the plant, AMARE [9] | percentage damage to the plant, SETFA [10] | percentage damage to the plant, ECHCG [11] | also measured |
| --- | --- | --- | --- | --- | --- | --- | --- | --- | --- | --- | --- | --- |
| CCn1c(C)c(-c2cc(C)c(F)c(C)c2)c(=O)c(C(=O)O)c1-c1ccc(Cl)cc1 [Compound 173, 2-(4-chlorophenyl)-1-ethyl-5-(4-fluoro-3,5-dimethyl-phenyl)-6-methyl-4-oxo-pyridine-3-carboxylic acid] | 0 | 0 | 1 (1=0-20%) | 3 (3=41-60%) | 2 (2=21-40%) | 3 (3=41-60%) | 2 (2=21-40%) | 0 | 0 | 0 | 0 |  |
| CCn1c(C)c(-c2ccc(F)c(C#N)c2)c(=O)c(C(=O)O)c1-c1ccc(Cl)cc1 [Compound 174, 2-(4-chlorophenyl)-5-(3-cyano-4-fluoro-phenyl)-1-ethyl-6-methyl-4-oxo-pyridine-3-carboxylic acid] | 1 (1=0-20%) | 1 (1=0-20%) | 2 (2=21-40%) | 2 (2=21-40%) | 3 (3=41-60%) | 4 (4=61-80%) | 1 (1=0-20%) | 1 (1=0-20%) | 1 (1=0-20%) | 2 (2=21-40%) | 3 (3=41-60%) |  |
| CCn1c(C)c(-c2cc(F)ccc2Cl)c(=O)c(C(=O)O)c1-c1ccc(Cl)cc1 [Compound 175, 5-(2-chloro-5-fluoro-phenyl)-2-(4-chlorophenyl)-1-ethyl-6-methyl-4-oxo-pyridine-3-carboxylic acid] | 3 (3=41-60%) | 0 | 2 (2=21-40%) | 1 (1=0-20%) | 3 (3=41-60%) | 3 (3=41-60%) | 1 (1=0-20%) | 1 (1=0-20%) | 0 | 2 (2=21-40%) | 1 (1=0-20%) |  |
| CCn1c(C)c(-c2cccc(OC)c2F)c(=O)c(C(=O)O)c1-c1ccc(Cl)cc1 [Compound 179, 2-(4-chlorophenyl)-1-ethyl-5-(2-fluoro-3-methoxy-phenyl)-6-methyl-4-oxo-pyridine-3-carboxylic acid] | 3 (3=41-60%) | 3 (3=41-60%) | 2 (2=21-40%) | 2 (2=21-40%) | 3 (3=41-60%) | 3 (3=41-60%) | 1 (1=0-20%) | 0 | 1 (1=0-20%) | 1 (1=0-20%) | 1 (1=0-20%) |  |
| CCn1c(C)c(-c2ccc(C#N)cc2)c(=O)c(C(=O)O)c1-c1ccc(Cl)cc1 [Compound 198, 2-(4-chlorophenyl)-5-(4-cyanophenyl)-1-ethyl-6-methyl-4-oxo-pyridine-3-carboxylic acid] |  |  |  |  |  |  |  |  |  |  |  | percentage damage to the plant, IPOHE (five-point scale) [1]: 1 (1=0-20%); percentage damage to the plant, ABUTH (five-point scale) [2]: 0; ECHCG, percentage damage caused to the plant (five-point scale) [3]: 1 (1=0-20%); AMARE, percentage damage caused to the plant (five-point scale) [4]: 2 (2=21-40%); SETFA, percentage damage caused to the plant (five-point scale) [5]: 2 (2=21-40%); IPOHE, percentage damage caused to the plant (five-point scale) [6]: 1 (1=0-20%); ZEAMX, percentage damage caused to the plant (five-point scale) [7]: 1 (1=0-20%); percentage damage to the plant, ZEAMX (five-point scale) [8]: 0; percentage damage to the plant, AMARE (five-point scale) [9]: 0; percentage damage to the plant, SETFA (five-point scale) [10]: 0; percentage damage to the plant, ECHCG (five-point scale) [11]: 0 |
| CCn1c(C)c(-c2cccc(C(F)(F)F)n2)c(=O)c(C(=O)O)c1-c1ccc(Cl)c(Cl)c1 [Compound 217, 2-(3,4-dichlorophenyl)-1-ethyl-6-methyl-4-oxo-5-[6-(trifluoromethyl)-2-pyridyl]pyridine-3-carboxylic acid] |  |  |  |  |  |  |  |  |  |  |  | percentage damage to the plant, IPOHE (five-point scale) [1]: 3 (3=41-60%); percentage damage to the plant, ABUTH (five-point scale) [2]: 3 (3=41-60%); ECHCG, percentage damage caused to the plant (five-point scale) [3]: 1 (1=0-20%); AMARE, percentage damage caused to the plant (five-point scale) [4]: 0; SETFA, percentage damage caused to the plant (five-point scale) [5]: 2 (2=21-40%); IPOHE, percentage damage caused to the plant (five-point scale) [6]: 3 (3=41-60%); ZEAMX, percentage damage caused to the plant (five-point scale) [7]: 0; percentage damage to the plant, ZEAMX (five-point scale) [8]: 1 (1=0-20%); percentage damage to the plant, AMARE (five-point scale) [9]: 0; percentage damage to the plant, SETFA (five-point scale) [10]: 2 (2=21-40%); percentage damage to the plant, ECHCG (five-point scale) [11]: 1 (1=0-20%) |
| CCOc1cc(-c2c(C)n(CC)c(-c3ccc(Cl)cc3)c(C(=O)O)c2=O)ccc1C(F)(F)F [Compound 176, 2-(4-chlorophenyl)-5-[3-ethoxy-4-(trifluoromethyl)phenyl]-1-ethyl-6-methyl-4-oxo-pyridine-3-carboxylic acid] | 0 | 0 | 1 (1=0-20%) | 2 (2=21-40%) | 1 (1=0-20%) | 1 (1=0-20%) | 1 (1=0-20%) | 0 | 0 | 0 |  |  |
| CCn1c(C)c(-c2ccc(Cl)cc2OC)c(=O)c(C(=O)O)c1-c1ccc(Cl)cc1 [Compound 184, 5-(4-chloro-2-methoxy-phenyl)-2-(4-chlorophenyl)-1-ethyl-6-methyl-4-oxo-pyridine-3-carboxylic acid] | 0 | 1 (1=0-20%) |  | 4 (4=61-80%) | 5 (5=81-100%) | 3 (3=41-60%) | 3 (3=41-60%) | 0 | 1 (1=0-20%) | 1 (1=0-20%) | 1 (1=0-20%) |  |
